Experimental data published in patent publication US9986723B2, “Screen and use of therapeutics for pancreatic ductal adenocarcinoma” (The Board of Regents of the University of Texas System, priority 2014, dated 2018).

Legend:
[1] = test system: PanIN and PDA tumor growth in KIC mice; assay: Two week in vivo assay in Rgs16::GFP;KIC mice, Rgs16::GFP intensity at P29; design: species or system mouse; conditions: for effect on GFP levels when combined with GA: drug dissolved in 30% Cyclodextrin
Description: Fluorescent microscopy and GFP quantification. Pancreatic expression of Rgs16::GFP in GFP-PDA mice was quantified using a Zeiss Lumar microscope. Images were captured using a single-channel camera (Hamamatsu) in 1344×1024 resolution with 1 sec exposure under 48× magnification with 1×1 binning, analog gain=10, and analog offset=2 settings. Pancreatic fields representing the tumor burden (3-4 fields for P15 pups and 5 or more for pups from P23 onwards) of the pancreas were imaged covering up to 50% of the organ surface area. All images were saved in gray-scale 16-bit tiff format. Images were quantified using NIH ImageJ software with background subtraction with a radius of 50 pixels. A variable and tight threshold was set to eliminate residual background. Intensities of all particles with size ≥5 pixels were summed to obtain the total light intensity per image.
Drug dosages. GFP-PDA mice were injected intraperitoneally with gemcitabine (Eli Lilly; Indianapolis, Ind., USA) (12.5 mg/kg/day given 3 days/week, dissolved in PBS), Abraxane (Cellgene; Summit, N.J., USA) (5 mg/kg/day given 2 days/week, diluted in 2% saline solution), BGB324 (BerGenBio, Bergen, Norway) (5 mg/kg/day given 5 days/week, dissolved in a mix of DMSO:ethanol:Kolliphor EL:water with 4:4:8:84 v/v ratio), and warfarin (0.2 mg/kg/day given 5 days/week, dissolved in PBS) according to injection schedules specified below. These doses were validated in prior mouse studies (Dineen et al., 2010; Kutluk Cenik et al., 2013; Ostapoff et al., 2013; Aguilera et al., 2014; Ostapoff et al., 2014). […] To verify tumor progression remains constant over the duration of these experiments, assays of untreated mice were interspersed with drug-treated cohorts, and warfarin-treated pups were the final cohort the inventors tested. Gemcitabine, Abraxane and warfarin were purchased from the UT Southwestern clinical pharmacy; BGB324 was a gift from BerGenBio.
Statistical analysis of GFP expression. GFP values were converted to log10 scale prior to statistical analysis. Graphs and their statistical comparisons were done using Graphpad Prism software with unpaired and two-tailed Student's t test. Significance between groups was indicated as ns (not significant); *p<0.05; **p<0.01; ***p<0.001; ****p<0.0001. Error bars in all the graphs are standard error mean (SEM). See FIGS. 7-8 for additional statistical analysis.
The therapeutic screening strategy was to treat KIC pups between P15-P28 (when PanIN and PDA are in rapid expansion) with anticancer drugs, sacrifice mice at P29, and capture Rgs16::GFP intensity with a dissection fluorescence microscope. Images of the five brightest non-overlapping fields of Rgs16::GFP expression were then collected, representing the regions of greatest tumor burden (FIGS. 17A-C).

[2] = test system: Pan02; assay: MTS cell growth assay, gemcitabine +/- warfarin; assay type: cell-based, murine; conditions: Mus musculus, Pan02, 120 h, gemcitabine alone, 5 days, read-out: Gemcitabine (nmol/L) median IC50
Experimental: (§1) Cytotoxicity and augmentation of chemotherapy response was measured by MTS assays conducted in 96-well plates; cells were plated on day 0 and drug was added on day 1 in 4-fold dilutions. Maximum concentration of 2,000 nmol/L for gemcitabine was used with or without the addition of a constant concentration of 2 μM warfarin or 1.1 μM 10C9. Relative cell number was determined by adding MTS (Promega; final concentration […]), incubating for 1 to 3 hours at 37° C., and reading absorbance. Drug sensitivity curves and IC50s were calculated using in-house software.

[3] = test system: ASPC; assay: MTS cell growth assay, gemcitabine +/- warfarin; assay type: cell-based, human; conditions: Homo sapiens, 120 h; gemcitabine alone; 5 days, MTS; read-out: Gemcitabine (nmol/L) median IC50
Experimental: as §1

[4] = test system: Panc1; assay: MTS cell growth assay, gemcitabine +/- warfarin; assay type: cell-based, human; conditions: Homo sapiens, PANC-1, 120 h; gemcitabine alone; 5 days, MTS; read-out: Gemcitabine (nmol/L) median IC50
Experimental: as §1

[5] = test system: Capan; assay: MTS cell growth assay, gemcitabine +/- warfarin; assay type: cell-based; conditions: Homo sapiens, 120 h, gemcitabine alone, 5 days, read-out: Gemcitabine (nmol/L) median IC50
Experimental: as §1

[6] = test system: MiaPaca; assay: MTS cell growth assay, gemcitabine +/- warfarin; assay type: cell-based; conditions: Homo sapiens, MIA PaCa-2, 120 h, gemcitabine alone, 5 days, read-out: Gemcitabine (nmol/L) median IC50
Experimental: as §1

[7] = test system: MiaShAxl; assay: MTS cell growth assay, gemcitabine +/- warfarin; assay type: cell-based; conditions: Homo sapiens, 120 h, gemcitabine alone, 5 days, read-out: Gemcitabine (nmol/L) median IC50
Experimental: as §1

[8] = test system: primary PDA cells; assay: Rgs16::GFP PDA primary cell culture, live cell counts after 24 hr drug treatment; assay type: cell-based, mouse; conditions: for effect on cell viability and proliferation: 24 hr, gemcitabine 10 μM, BGB324 or warfarin 1 or 10 μM; for recovery of cell growth after drug removal: passages without drug after 24 hr treatment
Experimental: Cell proliferation counts of primary PDA culture after 24 hr treatment with (FIG. 20A) gemcitabine (purple round); (FIG. 20B) BGB324 (green round); (FIG. 20C) warfarin (blue round); or (FIG. 20D) BGB324 with warfarin (green or blue round) at the indicated concentrations. PDA primary cells were plated at equal density (black open circle) at the start. Next day, cells were treated with drugs (D, red font) for 24 hr (red line). Approximate cell number at the start of drug treatment was obtained from another plate with equal density (red open circle). At the end of treatment, cells in each group were counted and subsequent passages started with cells plated at equal density (grey asterisk). Drug treated groups were allowed to grow without drug selection thereafter. Control cells (Ctrl) on separate plates were grown without drug and counted at the end of each passage (black open circle). PDA live cell numbers were obtained via counts using a hemocytometer after 2% Trypan blue staining to distinguish between living and dead cells under an inverted microscope with 10× objective. Statistical significances are based on comparison of drug-treated cell counts to Ctrl. […] Statistical analyses were obtained by comparing counts of drug-treated cells to Ctrl via unpaired and two-tailed Student's t-test. *, p<0.05; **, p<0.01; ***, p<0.001; ****, p<0.0001. Asterisks match the color of the comparison group.
Rgs16::GFP PDA primary cell culture. Primary Rgs16::GFP PDA cells were harvested from 6-week-old KIC mice. Cells were grown in 25 mM Glucose DMEM (HyClone) with 10% FBS (Serum Source International), penicillin and streptomycin (Life Technologies) on rat tail collagen typel (BD Biosciences) coated plates (0.5 μg/cm^2) in a humidified incubator at 37° C. and 5% CO2. Cells reaching confluency were washed twice with PBS (HyClone) and lifted with 0.05% Trypsin-EDTA (HyClone) treatment up to 10 min in the incubator. For drug tests in FIGS. 20A-D, primary PDA cells were incubated with gemcitabine (10 μM dissolved in PBS), warfarin (1 μM or 10 μM dissolved in water), BGB324 (1 μM or 10 μM dissolved in DMSO) or warfarin and BGB324 together for 24 hrs in 37° C. incubator. PDA live cell numbers were obtained via counts using a hemocytometer following 2% trypan blue staining to distinguish dead cells under an inverted microscope.

[9] = Body weight of KIC weanling mice under chemotherapy; assay type: in vivo, mouse; conditions: P29
Description: FIG. 19. […] Comparison of body weight of female (round) and male (square) non-KIC control (Ctrl, grey), and KIC untreated (Unt, black) or chemotherapy-treated KIC groups are shown. […] Significances are based on comparison of any KIC group to Ctrl via unpaired and two-tailed Student's t-test. ****, p<0.0001.

[10] = test system: advanced PDA; conditions: patients; cited from earlier work
[11] = test system: advanced ovarian cancer; conditions: gemcitabine with carboplatin; cited from earlier work
[12] = target: vitamin K epoxide reductase (Homo sapiens, UniProt Q9BQB6); conditions: cited from earlier work
Sequence of vitamin K epoxide reductase (Q9BQB6 whole entry): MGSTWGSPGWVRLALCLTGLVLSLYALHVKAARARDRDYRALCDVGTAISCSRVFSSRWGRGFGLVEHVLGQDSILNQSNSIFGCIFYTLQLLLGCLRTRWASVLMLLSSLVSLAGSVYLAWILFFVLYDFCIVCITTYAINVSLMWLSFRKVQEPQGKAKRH

[13] = target: T1, Axl (Homo sapiens, UniProt P30530); assay: Phosphorylated Axl in Panc-1 cells (western blot, immunofluorescence); assay type: cell-based; conditions: overnight, 1% serum, 2 μM
T1 construct: Lysates were probed for total Axl (tAxl) and phosphorylated Axl (pAxl); endogenous in cells; host or cells: Panc-1
T1 sequence (P30530 26-894): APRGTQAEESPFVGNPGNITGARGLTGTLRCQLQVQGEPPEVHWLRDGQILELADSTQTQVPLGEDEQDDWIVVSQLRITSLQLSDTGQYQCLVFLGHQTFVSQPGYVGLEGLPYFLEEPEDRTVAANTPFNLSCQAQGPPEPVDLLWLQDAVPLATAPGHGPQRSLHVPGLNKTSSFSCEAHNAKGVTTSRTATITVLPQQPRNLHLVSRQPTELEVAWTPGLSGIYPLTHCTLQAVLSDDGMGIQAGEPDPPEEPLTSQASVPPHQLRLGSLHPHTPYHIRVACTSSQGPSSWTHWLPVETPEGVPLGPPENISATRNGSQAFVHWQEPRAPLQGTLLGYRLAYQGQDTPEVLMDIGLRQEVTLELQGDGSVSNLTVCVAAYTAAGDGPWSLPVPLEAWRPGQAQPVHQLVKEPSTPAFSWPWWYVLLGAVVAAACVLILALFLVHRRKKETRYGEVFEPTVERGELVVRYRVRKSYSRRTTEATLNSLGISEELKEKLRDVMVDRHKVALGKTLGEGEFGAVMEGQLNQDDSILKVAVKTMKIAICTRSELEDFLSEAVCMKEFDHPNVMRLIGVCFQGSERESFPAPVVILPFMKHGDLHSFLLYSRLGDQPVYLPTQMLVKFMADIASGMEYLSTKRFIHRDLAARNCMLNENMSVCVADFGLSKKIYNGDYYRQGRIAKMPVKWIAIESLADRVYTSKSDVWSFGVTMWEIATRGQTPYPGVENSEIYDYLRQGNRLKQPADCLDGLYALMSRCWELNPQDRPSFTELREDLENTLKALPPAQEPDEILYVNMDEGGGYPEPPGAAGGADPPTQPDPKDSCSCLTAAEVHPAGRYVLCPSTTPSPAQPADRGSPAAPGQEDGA
Experimental: (FIG. 24A) HEK293 cells engineered to stably express recombinant Gas6 were grown in the presence of Vitamin K or Vitamin K+warfarin. Gas6 levels and γ-carboxylation were assayed by immunoblotting conditioned media. Conditioned media from untransfected HEK293 cells was used as a negative control. (FIG. 24B) Panc1 cells were grown overnight in media with 1% serum with no additions (NT), warfarin (2 μM) or BGB324 (2 μM). Lysates were probed for total Axl (tAxl) and phosphorylated Axl (pAxl). (FIG. 24C) Panc1 cells were grown in the presence of control media, Vitamin K, warfarin or warfarin+Vitamin K. The level of phosphorylated Axl (pAXL, red) was determined by immunofluorescence. (FIG. 24D) Panc1 cells were grown overnight in media with 1% serum with no additions (control), warfarin (1 μM), Gas6 (1.3 nM) or Gas6+warfarin. Lysates were probed for phosphorylated Akt (pAkt) and actin. (FIG. 24E) Lysates from Panc1 tumors harvested from mice treated with control or warfarin were probed for expression of tAxl, pAxl, actin, pAKT, tAKT, and cleaved Parp. (FIG. 24F) The effect of warfarin on cell migration was assessed by a ‘scratch’ assay. Monolayers of the indicted cells were wounded with a pipet tip. The cells were incubated in media containing 2% serum+/−warfarin (2 μM) or media containing 2% serum+Gas6 (1.3 nM)+/−warfarin.

## Cc1c(CN2CCN(C(=O)[C@H](C)O)CC2)sc2c(N3CCOCC3)nc(-c3cnc(N)nc3)nc12 [GDC980]
[1]
  effect on GFP levels when combined with GA: did not exert an effect

## Nc1ccn([C@@H]2O[C@H](CO)[C@@H](O)C2(F)F)c(=O)n1 [Gemcitabine]
[2]
  IC50: 76.5 nmol/L
[3]
  IC50: 16 nmol/L
[4]
  IC50: 17.1 nmol/L
[5]
  IC50: 6.87 nmol/L
[6]
  IC50: 14.5 nmol/L
[7]
  IC50: 21 nmol/L
[1]; KIC mice treated P15-P28, i.p., sacrificed P29
  effect on PanIN lesions and PDA tumor growth (Rgs16::GFP expression): reduction of GFP expression
[8]
  effect on cell viability and proliferation: killed cells
  recovery of cell growth after drug removal: did not recover
[9]
  body weight gain / growth of weanling mice: retards body weight gain
[10]
  survival: 6.7 months
[11]
  neutropenia (most commonly reported adverse effect): 90 % of patients

## CC(=O)C[C@@H](c1ccccc1)c1c(O)c2ccccc2oc1=O [S-warfarin]
[12]
  potency in producing an anticoagulant response relative to the R-isomer: 2-5 times

## Nc1nc(Nc2ccc3c(c2)CC[C@@H](N2CCCC2)CC3)nn1-c1cc2c(nn1)-c1ccccc1CCC2 [BGB324]
[1]
  effect on GFP levels when combined with GA: did not exert an effect
[8]
  effect on cell viability and proliferation: cytostatic
  recovery of cell growth after drug removal: within four passages
[13]
  phosphorylation of Axl (pAxl): inhibited phosphorylation of Axl
